The results in this text go back to US20110124505A1, “Agricultural Compositions” (COGNIS IP MANAGEMENT GMBH, priority 2008, published 2011).

SMILES strings stand for the structures.

This data set in a line: Solubility tests of biocides in different solvents. The source says: The solubility of various herbicides, fungicides and insecticides has been tested using different solvents.
Setting [1] is: in 100 ml of solvent C8-C10 fatty acid dimethyl amide (1:1) (Example 11).
Where [2] appears, read: in 100 ml of solvent C8-C10 fatty acid methyl ester (Comparative Example C14).
The mark [3] stands for this setting: in 100 ml of solvent C8 fatty acid dimethylamide (Example 9).
[4] abbreviates: in 100 ml of solvent C10 fatty acid dimethyl amide (Example 10).
Where [5] appears, read: in 100 ml of solvent C18 fatty acid dimethyl amide (Comparative Example C13).

As to `Cc1c(COC(=O)[C@@H]2[C@H](/C=C(\Cl)C(F)(F)F)C2(C)C)cccc1-c1ccccc1` (racemic) [Bifenthrin], the Solubility amounted to 34 percent by weight under setting [1]; 0 percent by weight under setting [2]; 30 percent by weight under setting [3]; 31 percent by weight under setting [4]; 10 percent by weight under setting [5].
With `O=C(NC(=O)c1c(F)cccc1F)Nc1ccc(OC(F)(F)C(F)OC(F)(F)F)c(Cl)c1` (stereo not drawn) [Novaluron], the Solubility is given as 32 percent by weight under setting [1]; 1 percent by weight under setting [2]; 28 percent by weight under setting [3]; 28 percent by weight under setting [4]; 8 percent by weight under setting [5].
With `CCOc1cc(Oc2ccc(C(F)(F)F)cc2Cl)ccc1[N+](=O)[O-]` [Oxyfluorfen], the Solubility reads like this: (in 100 ml of solvent C6-C12 fatty alcohol + 6PO (Comparative Example C4)) 10 percent by weight; (in 100 ml of solvent C6 fatty acid dimethyl amide (Comparative Example C1)) 12 percent by weight; (in 100 ml of solvent C8-C10 fatty acid dimethyl amide (1:1) (Example 3)) 31 percent by weight; (in 100 ml of solvent C8-C10 fatty acid methyl ester (Comparative Example C3)) 3 percent by weight; (in 100 ml of solvent C8 fatty acid dimethylamide (Example 1)) 25 percent by weight; (in 100 ml of solvent C10 fatty acid dimethyl amide (Example 2)) 28 percent by weight. This compound gave a Solubility (in 100 ml of solvent C12-C15 benzoate (Comparative Example C5)) of 7 percent by weight, a Solubility (in 100 ml of solvent C12 fatty acid dimethyl amide (Example 4)) of 27 percent by weight, a Solubility (in 100 ml of solvent C18 fatty acid dimethyl amide (Comparative Example C2)) of 19 percent by weight and a Solubility (in 100 ml of solvent Di-C8 alkyl carbonate (Comparative Example C6)) of 4 percent by weight.
Regarding `CC(C)(C)C(O)(CCc1ccc(Cl)cc1)Cn1cncn1` (stereo not drawn) [Tebucanazole], the Solubility is, setting by setting: (in 100 ml of solvent C6 fatty acid dimethyl amide (Comparative Example C7)) 18 percent by weight; (in 100 ml of solvent C8-C10 fatty acid dimethyl amide (1:1) (Example 7)) 39 percent by weight; (in 100 ml of solvent C8-C10 fatty acid methyl ester (Comparative Example C9)) 9 percent by weight; (in 100 ml of solvent C8 fatty acid dimethylamide (Example 5)) 30 percent by weight; (in 100 ml of solvent C10 fatty acid dimethyl amide (Example 6)) 33 percent by weight; (in 100 ml of solvent C12 fatty acid dimethyl amide (Example 8)) 35 percent by weight. Besides, the Solubility by setting is: (in 100 ml of solvent C18 fatty acid dimethyl amide (Comparative Example C8)) 22 percent by weight; (in 100 ml of solvent Di-C8 alkyl carbonate (Comparative Example C11)) 2 percent by weight; (in 100 ml of solvent Di-C8 alkyl ether (Comparative Example C12)) 2 percent by weight; (in 100 ml of solvent Triacetin (Comparative Example C10)) 6 percent by weight.
